From patent US20130324526A1, “[1,2,4] TRIAZOLO [4,3-B] PYRIDAZINE COMPOUNDS AS INHIBITORS OF THE C-MET TYROSINE KINASE” (NOVARTIS AG, priority 2011, published 2013)

Assays:
[1] = target: c-MET receptor tyrosine kinase, GST-c-MET(969-1390) (Homo sapiens, UniProt P08581); assay: EPK c-MET profiling assay (LanthaScreen TR-FRET kinase assay); format: biochemical; conditions: 2 μM ATP, 0.3 nM enzyme, 60 minutes at room temperature; end point measurement, repeats can be about two times higher or lower; read-out: c-Met Biochem IC50
Chain of c-MET receptor tyrosine kinase, GST-c-MET(969-1390) (P08581 969-1390): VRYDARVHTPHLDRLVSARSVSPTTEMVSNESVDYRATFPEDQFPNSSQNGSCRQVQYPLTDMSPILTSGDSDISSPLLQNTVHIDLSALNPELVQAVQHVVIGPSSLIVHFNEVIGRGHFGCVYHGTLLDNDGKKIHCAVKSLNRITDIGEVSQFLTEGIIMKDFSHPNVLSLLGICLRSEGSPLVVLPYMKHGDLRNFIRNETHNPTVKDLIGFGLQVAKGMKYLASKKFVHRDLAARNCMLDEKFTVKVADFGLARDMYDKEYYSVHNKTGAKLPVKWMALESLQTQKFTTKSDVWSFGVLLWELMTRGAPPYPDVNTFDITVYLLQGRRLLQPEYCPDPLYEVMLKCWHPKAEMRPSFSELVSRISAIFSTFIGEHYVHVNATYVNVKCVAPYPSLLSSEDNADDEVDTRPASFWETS
Description: The exemplified compounds of the present invention were assayed in an antibody based kinase phosphorylation assay as follows.
EPK c-MET Profiling Assay:
The EPK kinase assay for c-MET receptor tyrosine kinase was developed, using the purified recombinant GST-fusion protein, containing the cytoplasmic domain of the enzyme. GST-c-MET(969-1390) was purified by affinity chromatography.
The kinase assay is based on the LanthaScreen™ technology. LanthaScreen™ is the detection of Time-Resolved Fluorescence Resonance Energy Transfer (TR-FRET) using lanthanide chelates to measure interactions between various binding partners. In a TR-FRET kinase assay, a long-lifetime lanthanide donor species is conjugated to an antibody that specifically binds to a phosphorylated product of a kinase reaction that is labeled with a suitable acceptor fluorophore. This antibody-mediated interaction brings the lanthanide donor and the acceptor into proximity such that resonance energy transfer can take place, resulting in a detectable increase in the FRET signal.
The kinase reactions were performed in 384 well microtiter plates in a total reaction volume of 10.05 μL. The assay plates were prepared with 0.05 μL per well of test compound in the appropriate test concentration, as described under “preparation of compound dilutions”. The reactions were started by combining 5 μL of ATP solution with 5 μL of enzyme-substrate mix (consisting of kinase and substrate). The final concentrations in the kinase reactions were 25 mM Tris/HCl, 1 mM DTT, 0.025% Tween20, 10 μM sodium orthovanadate, 0.25% BSA, 0.5% DMSO, 10 mM MgCl2, 3 mM MnCl2, 2 μM ATP, 50 nM Fluorescein-PolyEAY, and 0.3 nM enzyme. The reactions were incubated for 60 minutes at room temperature and stopped by adding 5 μL of stop buffer (50 mM EDTA, 0.04% NP40, 20 mM Tris/HCl). Subsequently 5 μL of detection mix (50 mM Tris/HCl, 2 mM DTT, 0.05% Tween20, 20 μM sodium orthovanadate, 1% BSA, 1 nM Tb-PY20 antibody) were added to the stopped reactions. After 45 minutes incubation in dark at room temperature, the plates were measured in a Perkinelmer Envision fluorescence reader. The effect of compound on the enzymatic activity was in all assays obtained from the linear progress curves and normally determined from one reading (end point measurement).
These endpoint results should therefore only be seen as an indicator for the activity range, since repeated measurements can result in about two times higher or lower values.

GTL16 cells = assay: GTL16 cell viability assay (CellTiter Glo); format: cell-based; conditions: Homo sapiens, GTL 16, GTL16 gastric cancer cells, 24 hours, triplicates, read-out: GTL-16 Proliferation IC50
Description: GTL16 cell line is derived from a gastric cancer patient. GTL16 expresses high level of c-Met receptor tyrosine kinase due to the gene amplification.
GTL16 cells were seeded in DMEM medium with 10% FBS and 1% Pene. & Strep. at 5000 cells/well/90 μL in 96 well plate and incubated overnight for attachment at 37° C. in 5% CO2 incubator. 10-fold serials dilutions of compounds were added to the cell as 10 μL/well. The final assay volume was 100 μl/well. The assay plates were incubated at 37° C. in 5% CO2 incubator for 24 hours. […] Briefly, the plates were cooled at room temperature for 10 mins and 100 μl of CellTiter Glo reagent was added into each well. Plates were shaken for 10 mins. The chemiluminescent light unit was read in Envision from Perkin Elmer. All the tests were run at triplicates. The IC50 was calculated using Spotfire software.

human platelet PDE3 = target: T1, human platelet PDE3 (Homo sapiens, UniProt Q14432); assay: hPDE3 assay ([3H]cAMP scintillation proximity assay); format: biochemical; conditions: human platelet PDE3, [3H]cAMP SPA, 30 min at room temperature
T1 construct: Human platelet PDE3 (partially purified from human platelets); from tissue; host or cells: human platelets
T1 sequence (Q14432 whole entry): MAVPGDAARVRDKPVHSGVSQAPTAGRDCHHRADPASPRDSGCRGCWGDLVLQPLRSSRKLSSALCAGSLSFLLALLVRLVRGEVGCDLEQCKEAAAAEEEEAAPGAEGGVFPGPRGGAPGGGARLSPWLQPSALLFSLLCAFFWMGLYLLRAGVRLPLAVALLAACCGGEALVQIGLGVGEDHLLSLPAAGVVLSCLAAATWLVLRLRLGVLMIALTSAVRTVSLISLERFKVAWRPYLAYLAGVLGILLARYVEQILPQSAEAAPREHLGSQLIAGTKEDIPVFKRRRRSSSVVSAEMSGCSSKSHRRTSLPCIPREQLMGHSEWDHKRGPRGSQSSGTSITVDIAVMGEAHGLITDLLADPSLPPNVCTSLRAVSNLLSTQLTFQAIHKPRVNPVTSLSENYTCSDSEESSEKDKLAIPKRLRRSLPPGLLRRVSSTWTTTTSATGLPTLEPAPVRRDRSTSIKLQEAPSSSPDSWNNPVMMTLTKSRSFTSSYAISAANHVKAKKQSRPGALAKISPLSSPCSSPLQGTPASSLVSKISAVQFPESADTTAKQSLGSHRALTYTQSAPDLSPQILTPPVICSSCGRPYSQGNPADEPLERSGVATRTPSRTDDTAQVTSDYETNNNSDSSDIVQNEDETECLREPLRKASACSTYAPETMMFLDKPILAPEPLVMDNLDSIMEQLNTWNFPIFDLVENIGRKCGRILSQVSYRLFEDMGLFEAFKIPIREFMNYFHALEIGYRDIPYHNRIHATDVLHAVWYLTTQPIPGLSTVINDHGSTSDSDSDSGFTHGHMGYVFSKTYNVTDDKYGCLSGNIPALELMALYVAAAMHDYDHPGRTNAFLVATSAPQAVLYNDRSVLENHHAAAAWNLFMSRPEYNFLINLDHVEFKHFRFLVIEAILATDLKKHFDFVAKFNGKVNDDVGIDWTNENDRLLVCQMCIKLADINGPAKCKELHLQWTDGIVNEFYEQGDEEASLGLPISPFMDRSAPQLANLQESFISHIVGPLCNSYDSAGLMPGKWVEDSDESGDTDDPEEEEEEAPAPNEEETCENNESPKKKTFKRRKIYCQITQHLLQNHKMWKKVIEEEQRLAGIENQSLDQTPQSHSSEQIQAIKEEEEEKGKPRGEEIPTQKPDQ

Row | IC50 [1] [nM] | IC50 (human platelet PDE3) [nM] | Structure (SMILES) | IC50 (GTL16 cells) [nM]
1 | 2 | 14000 | C/C(=N\O)c1ccc2nnc(Cc3ccc4ncc(N5CCOCC5)cc4c3)n2n1 [Example 13, (E)-1-(3-((3-Morpholin-4-yl-quinolin-6-yl)methyl)-[1,2,4]triazolo[4,3-b]pyridazin-6-yl)ethanone oxime] | 10
2 | 3 | 25000 | C/C(=N\O)c1ccc2nnc(Cc3ccc4ncc(N5CCN(C)CC5)cc4c3)n2n1 [Example 14, (E)-1-(3-((3-(4-Methylpiperazin-1-yl)quinolin-6-yl)methyl)-[1,2,4]triazolo[4,3-b]pyridazin-6-yl)ethanone oxime] | 2
3 | 7 | > 30000 | C/C(=N\O)c1ccc2nnc(Cc3ccc4ncc(CN5CCOCC5)cc4c3)n2n1 [Example 15, (E)-1-(3-((3-(Morpholin-4-yl-methyl)quinolin-6-yl)methyl)-[1,2,4]triazolo[4,3-b]pyridazin-6-yl)ethanone oxime] | 13
4 | 47 | 7000 | C/C(=N\O)c1ccc2nnc([C@H](C)c3c(F)cc4ncc(-c5cnn(C)c5)cc4c3F)n2n1 [Example 21-(R), (R,E)-1-(3-(1-(5,7-difluoro-3-(1-methyl-1H-pyrazol-4-yl)quinolin-6-yl)ethyl)-[1,2,4]triazolo[4,3-b]pyridazin-6-yl)ethanone oxime] | 30
5 | 3 | 4000 | C/C(=N\O)c1ccc2nnc([C@@H](C)c3c(F)cc4ncc(-c5cnn(C)c5)cc4c3F)n2n1 [Example 21-(S), (S,E)-1-(3-(1-(5,7-difluoro-3-(1-methyl-1H-pyrazol-4-yl)quinolin-6-yl)ethyl)-[1,2,4]triazolo[4,3-b]pyridazin-6-yl)ethanone oxime] | 7
6 | 1 | 21000 | C/C(=N\O)c1ccc2nnc(Cc3c(F)cc4ncc(-c5cnn(C)c5)cc4c3F)n2n1 [Example 22, (E)-1-(3-((5,7-Difluoro-3-(1-methyl-1H-pyrazol-4-yl)quinolin-6-yl)methyl)-[1,2,4]triazolo[4,3-b]pyridazin-6-yl)ethanone oxime] | 3
7 | 16 | 3000 | C/C(=N\OCCO)c1ccc2nnc(Cc3c(F)cc4ncc(C5CCCCC5)cc4c3F)n2n1 [Example 25, (E)-1-(3-((3-Cyclohexyl-5,7-difluoroquinolin-6-yl)methyl)-[1,2,4]triazolo[4,3-b]pyridazin-6-yl)ethanone O-2-hydroxyethyl oxime] | 12
8 | 15 | > 30000 | C/C(=N\O)c1ccc2nnc(Cc3c(F)cc4ncc(C5CCCCC5)cc4c3F)n2n1 [Example 26, (E)-1-(3-((3-Cyclohexyl-5,7-difluoroquinolin-6-yl)methyl)-[1,2,4]triazolo[4,3-b]pyridazin-6-yl)-ethanone oxime] | 93
9 | 5 | > 30000 | C/C(=N\O)c1ccc2nnc(Sc3ccc4ncc(N5CCN(C)CC5)cc4c3)n2n1 [Example 28, (E)-1-(3-((3-(4-Methylpiperazin-1-yl)quinolin-6-yl)sulfanyl)-[1,2,4]triazolo[4,3-b]pyridazin-6-yl)-ethanone oxime] | 2
10 | 0.7 | > 30000 | C/C(=N\O)c1ccc2nnc(Sc3ccc4ncc(N5CCC(O)CC5)cc4c3)n2n1 [Example 29, (E)-1-(3-((3-(4-Hydroxypiperidin-1-yl)quinolin-6-yl)sulfanyl)-[1,2,4]triazolo[4,3-b]pyridazin-6-yl)-ethanone oxime] | 1
11 | 0.9 | 17000 | C/C(=N\O)c1ccc2nnc(Sc3ccc4ncc(NC5CCOCC5)cc4c3)n2n1 [Example 30, (E)-1-(3-((3-((Tetrahydro-2H-pyran-4-yl)amino)quinolin-6-yl)sulfanyl)-[1,2,4]triazolo[4,3-b]pyridazin-6-yl)-ethanone oxime] | 1
12 | 3 | > 30000 | C/C(=N\O)c1ccc2nnc(Sc3ccc4ncc(CN5CCOCC5)cc4c3)n2n1 [Example 31, (E)-1-(3-((3-(Morpholin-4-yl-methyl)quinolin-6-yl)sulfanyl)-[1,2,4]triazolo[4,3-b]pyridazin-6-yl)-ethanone oxime] | 23
13 | 4 | > 30000 | CCN(CC)Cc1cnc2ccc(Sc3nnc4ccc(/C(C)=N/O)nn34)cc2c1 [Example 32, (E)-1-(3-((3-((diethylamino)methyl)quinolin-6-yl)sulfanyl)-[1,2,4]triazolo[4,3-b]pyridazin-6-yl)ethanone oxime] | 256
